Results published in patent publication US20260132128A1, “COMPOUND FOR RECOVERING P53 MUTATION FUNCTION AND USE THEREOF” (SHENZHEN ZHONGGE BIOLOGICAL TECHNOLOGY CO., LTD., priority 2022, published 2026).
Marks after values point to notes of the source that are not given here.

Assays:
[1] = system: NUGC-3 cells; experiment: NUGC-3 cell proliferation assay (CTG); type: cell-based, human; details: for Compound GI50 (nM)/Reference compound GI50 (nM): multiple ratio of GI50 of the compound to the reference compound; for GI50: Homo sapiens, NUGC-3, 144 h, 6 days, CTG
Protocol: In order to detect the inhibitory effect of the aforementioned compounds on the proliferation ability of NUGC-3 cells, 250 NUGC-3 cells (Nanjing Cobioer Biosciences Co., Ltd., CBP60492) were seeded into a 384-well plate (Corning 3765), 35 μL per well, and incubated overnight in a constant temperature incubator at 37° C. and 5% CO2. Then, 40 nL of the compound was added to the 384-well plate using an Echo 655 Liquid Handler, with a maximum final concentration of 10 μM, 1:3 serial dilutions, and a total of 10 doses. The culture was performed at 37° C. and 5% CO2 for 6 days. The plate was taken out from the incubator and equilibrated at room temperature for 10 minutes. 20 μL of CTG (Promage G7572) was added to each well of the plate according to the platemap. The plate was centrifuged at 1000 rpm for 1 min. The lysis of cells was induced by mixing on a shaker for 2 min. The plate was centrifuged at 1000 rpm for 1 min. Incubation was performed at room temperature for 10 min to stabilize luminescence signals. Luminescence values were recorded by Envision (PerkinElmer 2105-0020). GraphPad 9.0 was used to fit the inhibition rate and compound concentration into a nonlinear regression curve (dose response-variable slope) to calculate GI50, inhibition rate={1−(A−B)/(C−B)}*100%, A=signal value of compound; B=average signal of blank control; C=average signal of negative control (wherein negative control was 0.1% DMSO).

[2] = molecular target: T1, p53 Y220C (Homo sapiens, UniProt P04637, P309S/R273H/Y220C); experiment: DNA binding test (HTRF): binding of P53Y220C protein to DNA; type: biochemical; details: HTRF, activation of p53 Y220C (aa 94-312) binding to biotin DNA
T1 construct: a truncated mutant containing only amino acids 94-312 of p53; made in house; host or cells: E. coli
Protocol: (§1) In order to detect the ability of the aforementioned compounds to increase the binding of P53Y220C protein to DNA, the binding activity of p53 Y220C was measured by homogeneous time-resolved fluorescence (HTRF). Recombinant His-tagged p53 Y220C for HTRF measurement was expressed in bacteria E. coli. The recombinant protein was a truncated mutant containing only amino acids 94-312 of p53, and its sequence was […] […] VEGNLR […] TFRh[…] […]. The sense strand of the DNA double strand was 5′-[…]-3′, with a biotin tag at the 5′ end for activity assay, and the antisense strand was 5′-[…]-3′ 40 mL of assay buffer (20 mM Tris HCL, pH 7.5, 50 mM NaCl, 2 mM MgCl2, 0.02% Tween 20, 0.01% BSA, 1 mM DTT) was prepared. 10 mM compound was prepared and subjected to 3-fold dilution to obtain 10 dose gradient dilutions of the compound. 20 nL of the compound was added to a 384-well assay plate (PerkinElmer 6007299) using an Echo 655 Liquid Handler. P53Y220C protein was dissolved in assay buffer to reach a final concentration of 150 nM, and 5 μL thereof was added to each well, and incubated at room temperature for 5 min. DNA was dissolved in assay buffer to reach a final concentration of 150 nM, and 5 μL thereof was added to each well, and incubated at room temperature for 15 min. Anti 6HIS-XL665 (Cisbio 61HISXLB) was dissolved in assay buffer to reach a final concentration of 20 nM, and 5 μL thereof was added to each well. Streptavidin-Eu cryptate (Cisbio 610SAKLA) was dissolved in assay buffer to reach a final concentration of 0.625 nM, and 5 μL thereof was added to each well, and incubated at 27° C. for 1 hour. The plate was then read for signal values on an Envision (PerkinElmer 2105-0020) plate reader at 665 nm and 615 nm, respectively. […] Activation rate={(A-C)/(C)}*100%, A=(signal value at 665 nm/signal value at 615 nm); C=average signal of negative control (wherein, negative control referred to 0.1% DMSO).

[3] = molecular target: T2, p53 Y220C (Homo sapiens, UniProt P04637, Y220C); experiment: as above; type: biochemical; details: multiple ratio of EC50 of the compound to the reference compound, DNA binding test
T2 construct: a truncated mutant containing only amino acids 94-312 of p53; made in house; host or cells: E. coli
Protocol: as §1

EC50 [2] | SMILES | Compound GI50 (nM)/Reference compound GI50 (nM) [1] | Compound EC50 (nM)/Reference compound EC50 (nM) [3] | GI50 [1]
< 100 nM | COc1cc(S(=N)(=O)C2CC2)ccc1NCC#Cc1cc2c(NC3CCN(C)CC3F)cccc2n1CC(F)(F)F (single isomer, unassigned) [Compound 39d] | A (A: GI50 of the compound ≤ GI50 of the reference compound) | A (A: EC50 of the compound≤EC50 of the reference compound) | –
< 100 nM | CNC(=O)c1ccc(NCC#Cc2nc3c(N[C@@H]4CC[C@@H](N5CC6(CCC6)C5)C[C@@H]4F)cccn3c2CC(F)(F)F)c(OC)c1 [Compound 42] | – | – | –
– | CNC(=O)c1ccc(NCC#Cc2nc3c(NC4CC[C@@H](N5CC6(COC6)C5)C[C@@H]4F)cccn3c2CC(F)(F)F)c(OC2CCC2)c1 (stereo partly shown) [Compound 61] | C (C: GI50 of the compound ≥ 3 * GI50 of the reference compound) | B (B: EC50 of the reference compound<EC50 of the compound≤3.0*EC50 of the reference compound) | –
– | CNC(=O)c1ccc(NCC#Cc2nc3c(NC4CC[C@@H](N5CC6(CCCCC6)C5)C[C@@H]4F)cccn3c2CC(F)(F)F)c(OC)c1 (stereo partly shown) [Compound 45] | C (C: GI50 of the compound ≥ 3 * GI50 of the reference compound) | B (B: EC50 of the reference compound<EC50 of the compound≤3.0*EC50 of the reference compound) | –
– | CNC(=O)c1ccc(NCC#Cc2cc3c(N[C@@H]4CCN(C)C[C@@H]4F)ccnn3c2CC(F)(F)F)c(OC)c1 [Compound 85] | C (C: GI50 of the compound ≥ 3 * GI50 of the reference compound) | C (C: EC50 of the compound≥3*EC50 of the reference compound) | –
– | CONC(=O)c1ccc(NCC#Cc2nc3c(NC4CC[C@@H](N5CC6(COC6)C5)C[C@@H]4F)cccn3c2CC(F)(F)F)c(OC)c1 (stereo partly shown) [Compound 53] | C (C: GI50 of the compound ≥ 3 * GI50 of the reference compound) | A (A: EC50 of the compound≤EC50 of the reference compound) | < 1000 nM
< 100 nM | CNC(=O)c1ccc(NCC#Cc2nc3c(N[C@@H]4CC[C@@H](N5CC6(CCOCC6)C5)C[C@@H]4F)cccn3c2CC(F)(F)F)c(OC)c1 [Compound 46] | – | – | –
< 100 nM | CNC(=O)c1ccc(NCC#Cc2nc3c(N[C@@H]4CC[C@@H](N5CCCC5)C[C@@H]4F)cccn3c2CC(F)(F)F)c(OC)c1 [Compound 41] | – | – | –
– | COc1cc(NCC#Cc2nc3c(NC4CCN(C)CC4)cccn3c2CC(F)(F)F)c(NC(C)=O)cn1 [Compound 26] | C (C: GI50 of the compound ≥ 3 * GI50 of the reference compound) | C (C: EC50 of the compound≥3*EC50 of the reference compound) | –
– | CNC(=O)c1ccc(NCC#Cc2cc3c(NC4CC[C@@H](N5CC6(COC6)C5)C[C@@H]4F)cccn3c2CC(F)(F)F)c(OC)c1 (stereo partly shown) [Compound 65] | A (A: GI50 of the compound ≤ GI50 of the reference compound) | B (B: EC50 of the reference compound<EC50 of the compound≤3.0*EC50 of the reference compound) | < 1000 nM
– | COc1cc(C(=O)NCC(F)F)ccc1NCC#Cc1nc2c(NC3CC[C@@H](N4CC5(COC5)C4)C[C@@H]3F)cccn2c1CC(F)(F)F (stereo partly shown) [Compound 55] | C (C: GI50 of the compound ≥ 3 * GI50 of the reference compound) | B (B: EC50 of the reference compound<EC50 of the compound≤3.0*EC50 of the reference compound) | –
